Results as given in patent US20250129334A1, “LINEAGE SPECIFICATION DURING STEM CELL TRANSITION” (Amniotics AB, priority 2021, published 2025).

Legend:
[1] = tested on: HE cells; experiment: Colony forming unit assay of subcultured HE cells; type: cell-based, human
Description: Subcultured HE cells were treated with StemPro Accutase Cell Dissociation Reagent for 2 minutes at 37° C. and dissociated cells were resuspended in 3 ml Methocult H4230 (STEMCELL Technologies, France) (prepared according to manufacturer's instructions, with 20 mL Iscove's Modified Dulbecco's Medium containing 2.5 μg hSCF, 5 μg GM-CSF, 2.5 μg IL-3 and 500 U EPO). Each mixture was divided onto 2 wells of a non-tissue culture treated 6-well plate. Following a 12-day incubation in a humidified incubator at 37° C., 5% CO2, 20% O2, colonies were morphologically distinguished and scored. For globin analysis, colonies in Methocult wells were harvested with PBS, washed thoroughly and frozen in RLT buffer with β-mercaptoethanol. Following RNA extraction and RT (Qiagen), gene expression was assessed with taqman probes by q-PCR. The taqman probes used for this assay are HBA1/2 (Hs00361191_g1), HBE1 (Hs00362216_m1), HBG2/1 (Hs00361131_g1) and KLF1 (Hs00610592_m1).

[2] = tested on: HE cells; experiment: HE subculture with metabolic regulators, flow cytometry of hematopoietic output; type: cell-based, human
From the text: The RB9-CB1 human iPSC line (Woods, N.-B. et al. Brief report: efficient generation of hematopoietic precursors and progenitors from human pluripotent stem cell lines. Stem Cells 29, 1158-1164 (2011)) was co-cultured with mouse embryonic fibroblasts (MEFs, Millipore), passaged every six days and processed to form embryoid bodies (EBs) as described previously (Guibentif, C. et al. Single-Cell Analysis Identifies Distinct Stages of Human Endothelial to-Hematopoietic Transition. Cell Reports 19, 10-19 (2017)). The differentiation protocol used in this study was previously described (Ditadi, A. & Sturgeon, C. M. Directed differentiation of definitive hemogenic endothelium and hematopoietic progenitors from human pluripotent stem cells. Methods 101, 65-72 (2016)), however, small modifications were made to induce both primitive and definitive hematopoiesis, as indicated below and in FIG. 6, a. Newly-formed EBs were first kept in SFD medium supplemented with 1 ng/ml Activin A (on days 0-2) and 3 μM CHIR99021 (on day 2 only). At day 3, media was switched to “Day 3-SP34” medium supplemented with 1 ng/ml Activin A (on day 3 only) and 3 μM CHIR99021 (on day 3 only) until day 6. On day 6, media was replaced by “Day 6-SP34” medium, until day 8. In some experiments where indicated, to obtain a higher yield of HSC-like cells, EBs were kept until day 10: in this case, EBs were plated onto Matrigel (8 μg/cm2, Corning)-coated dishes on day 8 and kept until day 10. Media was changed every day, except on days 5 and 7. On day 8 or 10 (as indicated), EBs were singularized with 5-6 rounds of 5-minute incubations with TryPLE Express (Thermo Fisher Scientific). CD34^+ cells were selected using the human CD34 MicroBead kit (Miltenyi Biotec) and stained with CD34-FITC, CD73-PE, VECad-PerCPCy5.5, CD38-PC7, CD184-APC, CD45-AF700, CD43-APCH7, GPA-eF450, CD90-BV605 and the viability marker 7AAD in order to sort HE (CD34^+CD43^−CXCR4^−CD73^−CD90^+VECad^+), EHT (CD34^+CD43^intCXCR4^−CD73^−CD90^+VECad^+) and HSC-like (CD34^+CD43^+CD90^+CD38^−) cells, according to previously described markers (Guibentif, C. et al. Single-Cell Analysis Identifies Distinct Stages of Human Endothelial to-Hematopoietic Transition. Cell Reports 19, 10-19 (2017); Ditadi, A. et al. Human definitive haemogenic endothelium and arterial vascular endothelium represent distinct lineages. Nat Cell Biol 17, 580-591 (2015); and Choi, K.-D. et al. Identification of the Hemogenic Endothelial Progenitor and Its Direct Precursor in Human Pluripotent Stem Cell Differentiation Cultures. Cell Reports 2, 553-567 (2012)).
Sorted HE (40,000), EHT (30,000) and HSC-like (5-20,000) cells were plated onto Matrigel (16 μg/cm2, Corning)-coated 96-well flat bottom plates in HE medium with 1% penicillin-streptomycin and kept in a humidified incubator at 37° C., 5% C02, 4% 02 overnight. The following day (day 0), wells were washed twice with PBS and fresh HE medium was added, together with 2-DG (1 mM), UK5099 (10 μM), DCA (3 mM or 10 mM), TSA (60 nM), TCP (300 nM), ACSS2i (5 μM), C646 (10 μM), CP-640186 (5 μM) or Atorvastatin (0.5 μM), where indicated. Media was changed and drugs were added every 2 days and cells were kept in a humidified incubator at 37° C., 5% CO2, 20% O2 for 6-7 days. Pictures were taken using an Olympus IX70 microscope equipped with a CellSens DP72 camera and CellSens Standard 1.6 software (Olympus). For single cell subcultures, single HE cells were directly sorted with a BD FACSAriaIII onto OP9-DL1 stroma in flat-bottom 96-well plates with 120 μl OP9 medium (OptiMEM medium with Glutamax (Invitrogen) with 10% FCS, 1% penicillin-streptomycin solution (Thermo Fisher Scientific) and 1% 2-mercaptoethanol (Invitrogen)) with SCF, IL-6, IL-11, IGF1 and EPO, and with or without 10 μM UK, or 3 mM or 10 mM DCA. The cells were kept in a humidified incubator at 37° C., 5% CO2, 4% O2 and media was replaced every 4 days. […]

| SMILES | ratio of CFU-E colonies to the sum of CFU-G, CFU-GM and CFU-M colonies, lower than control ([1]; 6 days subculture, DCA 3 mM) | decrease in CD43+GPA+ cells ([2]; day 6 of HE subculture, DCA 3 mM) | increase in CD43+CD45+ cells / cell output ([2]; day 6 of subculture, deriving from HE, DCA 3 mM or shRNA) | granulocyte and macrophage colonies (CFU-G, GM and M) ([1]; 3 or 6 days of UK5099) | ratio of CFU-E colonies to the sum of CFU-G, CFU-GM and CFU-M colonies, higher than control ([1]; 6 days subculture, UK5099 10 μM) | erythroid colony (CFU-E) formation ([1]; UK5099 3 or 6 days, DCA 6-day treatment, vs untreated) | EdU incorporation (proliferation) ([2]; 24 h pulse, days 1 and 2 of subculture, UK5099 10 μM, DCA 3 mM) | frequency of HSC-like cells deriving from HE ([2]; 3 days subculture, UK5099 10 μM, DCA 3 mM) | proliferation of CD45+ cells deriving from HE ([2]; CTV, UK5099 10 μM, DCA 3 mM) | proliferation of the GPA+ population deriving from HE ([2]; CTV, day 3, UK5099 10 μM, DCA 3 mM) | CD43+GPA+ cell output ([2]; day 3 of HE subculture, UK5099 10 μM, 1-AA 4 mM, DCA 3 mM, vs control) | levels of total CD43+ cells ([2]; day 6, UK5099 10 μM, 1-AA 4 mM) | decrease in CD43+CD45+ population ([2]; day 6, deriving from HE, UK5099 10 μM) |
| --- | --- | --- | --- | --- | --- | --- | --- | --- | --- | --- | --- | --- | --- |
| O=C(O)C(Cl)Cl [DCA, dichloroacetate] | more than 3 fold | 50% | 80% | – | – | – | – | – | – | – | – | – | – |
| N#CC(=Cc1cn(-c2ccccc2)c2ccccc12)C(=O)O [UK5099, 2-Cyano-3-(1-phenyl-1H-indol-3-yl)-2-propenoic acid] | – | – | – | decreased | 20 fold | significantly increased | no differences in proliferation | did not have an effect | did not have an effect | did not observe any differences | striking increase | unchanged | 2 fold |
